Laboratory results reported in ChEMBL document CHEMBL1201861, “Genomics of Drug Sensitity in Cancer screening data, Wellcome Trust Sanger Institute”.

Legend:
DMS-153 = assay: cells; assay type: functional, cell-based, Homo sapiens; conditions: Homo sapiens, DMS-153
Description: SANGER: Inhibition of human DMS-153 cell growth in a cell viability assay.

SNU-16 = assay: cells; assay type: functional, cell-based, Homo sapiens; conditions: Homo sapiens, SNU-16;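 note: growth inhibition of human SNU-16 cells, determined with a cell viability readout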
Description: SANGER: Inhibition of human NCI-SNU-16 cell growth in a cell viability assay.

C32 = assay: cells; assay type: functional, cell-based, Homo sapiens; conditions: Homo sapiens, C32;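 note: cell viability assay, with IC50 reflecting inhibition of C32 cell growth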
Description: SANGER: Inhibition of human C32 cell growth in a cell viability assay.

FTC-133 = assay: cells; assay type: functional, cell-based, Homo sapiens; conditions: Homo sapiens, FTC-133
OE33 = assay: cells; assay type: functional, cell-based, Homo sapiens; conditions: Homo sapiens, OE33;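 note: growth inhibition of human OE33 cells, measured by a cell viability assay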
Description: SANGER: Inhibition of human OE33 cell growth in a cell viability assay.

Daoy = assay: cells; assay type: functional, cell-based, Homo sapiens; conditions: Homo sapiens, Daoy;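 note: daoy cell growth inhibition, read out as cell viability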
Description: SANGER: Inhibition of human Daoy cell growth in a cell viability assay.

ES6 = assay: cells; assay type: functional, cell-based, Homo sapiens; conditions: Homo sapiens, ES6;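 note: growth inhibition of human ES6 cells, read out with a cell viability assay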
Description: SANGER: Inhibition of human ES6 cell growth in a cell viability assay.

RCC10RGB = assay: cells; assay type: functional, cell-based, Homo sapiens; conditions: Homo sapiens, RCC10RGB;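 note: growth inhibition of human RCC10RGB cells, read out by a cell viability assay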
Description: SANGER: Inhibition of human RCC10RGB cell growth in a cell viability assay.

NCI-H2122 = assay: cells; assay type: functional, cell-based, Homo sapiens; conditions: Homo sapiens, NCI-H2122;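 note: growth inhibition of the cells, read out with a cell viability assay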
Description: SANGER: Inhibition of human NCI-H2122 cell growth in a cell viability assay.

D-542MG = assay: cells; assay type: functional, cell-based, Homo sapiens; conditions: Homo sapiens, D-542MG
Description: SANGER: Inhibition of human D-542MG cell growth in a cell viability assay.

S-117 = assay: cells; assay type: functional, cell-based, Homo sapiens; conditions: Homo sapiens, S-117
Description: SANGER: Inhibition of human S-117 cell growth in a cell viability assay.

Ca-Ski = assay: cells; assay type: functional, cell-based, Homo sapiens; conditions: Homo sapiens, Ca-Ski;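 note: cell viability assay measuring inhibition of Ca-Ski cell growth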
Description: SANGER: Inhibition of human Ca-Ski cell growth in a cell viability assay.

no-10 = assay: cells; assay type: functional, cell-based, Homo sapiens; conditions: Homo sapiens;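 note: growth inhibition of no-10 cells, read out with a cell viability assay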
Description: SANGER: Inhibition of human no-10 cell growth in a cell viability assay.

GCIY = assay: cells; assay type: functional, cell-based, Homo sapiens; conditions: Homo sapiens, GCIY;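 note: growth inhibition of the human GCIY cell line, read out by a cell viability assay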
Description: SANGER: Inhibition of human GCIY cell growth in a cell viability assay.

JAR = assay: cells; assay type: functional, cell-based, Homo sapiens; conditions: Homo sapiens, JAR;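 note: growth inhibition of human JAR cells determined with a cell viability assay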
Description: SANGER: Inhibition of human JAR cell growth in a cell viability assay.

SW1573 = assay: cells; assay type: functional, cell-based, Homo sapiens; conditions: Homo sapiens, SW1573;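 note: growth inhibition of SW1573 cells, read out with a cell viability assay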
Description: SANGER: Inhibition of human SW1573 cell growth in a cell viability assay.

HAL-01 = assay: cells; assay type: functional, cell-based, Homo sapiens; conditions: Homo sapiens, HAL-01;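 note: growth inhibition of human HAL-01 cells, read out with a cell viability assay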
Description: SANGER: Inhibition of human HAL-01 cell growth in a cell viability assay.

TE-8 = assay: cells; assay type: functional, cell-based, Homo sapiens; conditions: Homo sapiens, TE-8;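 note: growth inhibition of TE-8 cells, measured with a cell viability readout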
Description: SANGER: Inhibition of human TE-8 cell growth in a cell viability assay.

EFM-19 = assay: cells; assay type: functional, cell-based, Homo sapiens; conditions: Homo sapiens, EFM-19;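 note: growth inhibition of human EFM-19 cells, measured in a cell viability assay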
Description: SANGER: Inhibition of human EFM-19 cell growth in a cell viability assay.

C-33-A = assay: cells; assay type: functional, cell-based, Homo sapiens; conditions: Homo sapiens, C-33-A;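 note: cell viability assay measuring growth inhibition of C-33-A cells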
Description: SANGER: Inhibition of human C-33-A cell growth in a cell viability assay.

C2BBe1 = assay: cells; assay type: functional, cell-based, Homo sapiens; conditions: Homo sapiens, C2BBe1;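 note: growth inhibition of C2BBe1 cells, read out through a viability assay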
Description: SANGER: Inhibition of human C2BBe1 cell growth in a cell viability assay.

769-P = assay: cells; assay type: functional, cell-based, Homo sapiens; conditions: Homo sapiens, 769-P
Description: SANGER: Inhibition of human 769-P cell growth in a cell viability assay.

NCI-H2171 = assay: cells; assay type: functional, cell-based, Homo sapiens; conditions: Homo sapiens, NCI-H2171;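 note: growth inhibition of human NCI-H2171 cells, read out by a cell viability assay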
Description: SANGER: Inhibition of human NCI-H2171 cell growth in a cell viability assay.

KGN = assay: cells; assay type: functional, cell-based, Homo sapiens; conditions: Homo sapiens, KGN;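 note: growth inhibition of KGN cells, read out with a cell viability assay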
Description: SANGER: Inhibition of human KGN cell growth in a cell viability assay.

LS-411N = assay: cells; assay type: functional, cell-based, Homo sapiens; conditions: Homo sapiens, LS-411N
SCC-9 = assay: cells; assay type: functional, cell-based, Homo sapiens; conditions: Homo sapiens, SCC-9;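 note: Read-out is a cell viability assay, with values giving inhibition of cell growth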
Description: SANGER: Inhibition of human SCC-9 cell growth in a cell viability assay.

BEN = assay: cells; assay type: functional, cell-based, Homo sapiens; conditions: Homo sapiens, BEN;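 note: growth inhibition of the BEN cell line, read out with a cell viability assay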
Description: SANGER: Inhibition of human BEN cell growth in a cell viability assay.

NCI-H510A = assay: cells; assay type: functional, cell-based, Homo sapiens; conditions: Homo sapiens, NCI-H510A;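 note: growth inhibition of NCI-H510A cells, read out with a cell viability assay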
Description: SANGER: Inhibition of human NCI-H510A cell growth in a cell viability assay.

MC-CAR = assay: cells; assay type: functional, cell-based, Homo sapiens; conditions: Homo sapiens, MC-CAR;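 note: growth inhibition of the human MC-CAR cell line, read out by a cell viability assay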
Description: SANGER: Inhibition of human MC-CAR cell growth in a cell viability assay.

EW-16 = assay: cells; assay type: functional, cell-based, Homo sapiens; conditions: Homo sapiens, EW-16;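 note: growth inhibition of human EW-16 cells, read out as cell viability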
Description: SANGER: Inhibition of human EW-16 cell growth in a cell viability assay.

UO-31 = assay: cells; assay type: functional, cell-based, Homo sapiens; conditions: Homo sapiens, UO-31
Description: SANGER: Inhibition of human U031 cell growth in a cell viability assay.

MDA-MB-231 = assay: cells; assay type: functional, cell-based, Homo sapiens; conditions: Homo sapiens, MDA-MB-231
Description: SANGER: Inhibition of human MDA-MB-231 cell growth in a cell viability assay.

HD-MY-Z = assay: cells; assay type: functional, cell-based, Homo sapiens; conditions: Homo sapiens, HD-MY-Z;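 note: growth inhibition of HD-MY-Z cells, read out with a cell viability assay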
Description: SANGER: Inhibition of human HD-MY-Z cell growth in a cell viability assay.

NCI-H1522 = assay: cells; assay type: functional, cell-based, Homo sapiens; conditions: Homo sapiens, NCI-H1522;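 note: growth inhibition of NCI-H1522 cells, read out with a cell viability assay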
Description: SANGER: Inhibition of human NCI-H1522 cell growth in a cell viability assay.

TYK-nu = assay: cells; assay type: functional, cell-based, Homo sapiens; conditions: Homo sapiens, TYK-nu;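 note: growth inhibition of human TYK-nu cells, read out by a cell viability assay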
Description: SANGER: Inhibition of human TYK-nu cell growth in a cell viability assay.

KYSE-140 = assay: cells; assay type: functional, cell-based, Homo sapiens; conditions: Homo sapiens, KYSE-140;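 note: cell viability assay measuring growth inhibition in human KYSE-140 cells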
Description: SANGER: Inhibition of human KYSE-140 cell growth in a cell viability assay.

AN3-CA = assay: cells; assay type: functional, cell-based, Homo sapiens; conditions: Homo sapiens, AN3-CA;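 note: growth inhibition of human AN3-CA cells measured by a cell viability assay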
Description: SANGER: Inhibition of human AN3-CA cell growth in a cell viability assay.

BL-41 = assay: cells; assay type: functional, cell-based, Homo sapiens; conditions: Homo sapiens, BL-41;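 note: growth inhibition of human BL-41 cells, read out with a cell viability assay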
Description: SANGER: Inhibition of human BL-41 cell growth in a cell viability assay.

Hs-578T = assay: cells; assay type: functional, cell-based, Homo sapiens; conditions: Homo sapiens, Hs-578T
Description: SANGER: Inhibition of human Hs-578-T cell growth in a cell viability assay.

NCI-H446 = assay: cells; assay type: functional, cell-based, Homo sapiens; conditions: Homo sapiens, NCI-H446;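 note: growth inhibition of NCI-H446 cells determined by a cell viability assay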
Description: SANGER: Inhibition of human NCI-H446 cell growth in a cell viability assay.

NCI-H1563 = assay: cells; assay type: functional, cell-based, Homo sapiens; conditions: Homo sapiens, NCI-H1563;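 note: growth inhibition of human NCI-H1563 cells, read out with a cell viability assay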
Description: SANGER: Inhibition of human NCI-H1563 cell growth in a cell viability assay.

Calu-3 = assay: cells; assay type: functional, cell-based, Homo sapiens; conditions: Homo sapiens, Calu-3;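 note: growth inhibition of human Calu-3 cells, determined with a cell viability assay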
Description: SANGER: Inhibition of human Calu-3 cell growth in a cell viability assay.

COLO-684 = assay: cells; assay type: functional, cell-based, Homo sapiens; conditions: Homo sapiens, COLO-684
Description: SANGER: Inhibition of human COLO-684 cell growth in a cell viability assay.

SU-DHL-1 = assay: SANGER: Inhibition of human SU-DHL-1 cell growth in a cell viability assay.; assay type: functional, cell-based; conditions: Homo sapiens, SU-DHL-1
P31-FUJ = assay: cells; assay type: functional, cell-based, Homo sapiens; conditions: Homo sapiens, P31-FUJ;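 note: growth inhibition of P31-FUJ cells, read out with a viability assay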
Description: SANGER: Inhibition of human P31-FUJ cell growth in a cell viability assay.

SK-PN-DW = assay: cells; assay type: functional, cell-based, Homo sapiens; conditions: Homo sapiens, SK-PN-DW;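 note: growth inhibition measured with a viability assay on these cells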
Description: SANGER: Inhibition of human SK-PN-DW cell growth in a cell viability assay.

PANC-08-13 = assay: cells; assay type: functional, cell-based, Homo sapiens; conditions: Homo sapiens, PANC-08-13
Description: SANGER: Inhibition of human PANC-08-13 cell growth in a cell viability assay.

DU-4475 = assay: cells; assay type: functional, cell-based, Homo sapiens; conditions: Homo sapiens, DU-4475
Description: SANGER: Inhibition of human DU-4475 cell growth in a cell viability assay.

Compound: N#Cc1c(O)c2c(-c3ccc(-c4ccccc4O)cc3)csc2[nH]c1=O
- IC50 (DMS-153): 0.373 µM
- IC50 (SNU-16): > 1.02 µM
- IC50 (C32): > 1.02 µM
- IC50 (FTC-133): > 1.02 µM
- IC50 (OE33): > 1.02 µM
- IC50 (Daoy): > 1.02 µM
- IC50 (ES6): > 1.02 µM
- IC50 (RCC10RGB): > 1.02 µM
- IC50 (NCI-H2122): > 1.02 µM
- IC50 (D-542MG): > 1.02 µM
- IC50 (S-117): > 1.02 µM
- IC50 (Ca-Ski): > 1.02 µM
- IC50 (no-10): > 1.02 µM
- IC50 (GCIY): > 1.02 µM
- IC50 (JAR): > 1.02 µM
- IC50 (SW1573): > 1.02 µM
- IC50 (HAL-01): > 1.02 µM
- IC50 (TE-8): > 1.02 µM
- IC50 (EFM-19): > 1.02 µM
- IC50 (C-33-A): > 1.02 µM
- IC50 (C2BBe1): > 1.02 µM
- IC50 (769-P): > 1.02 µM
- IC50 (NCI-H2171): 0.622 µM
- IC50 (KGN): > 1.02 µM
- IC50 (LS-411N): > 1.02 µM
- IC50 (SCC-9): > 1.02 µM
- IC50 (BEN): > 1.02 µM
- IC50 (NCI-H510A): 0.692 µM
- IC50 (MC-CAR): 0.172 µM
- IC50 (EW-16): > 1.02 µM
- IC50 (UO-31): > 1.02 µM
- IC50 (MDA-MB-231): > 1.02 µM
- IC50 (HD-MY-Z): 0.148 µM
- IC50 (NCI-H1522): 0.194 µM
- IC50 (TYK-nu): > 1.02 µM
- IC50 (KYSE-140): > 1.02 µM
- IC50 (AN3-CA): > 1.02 µM
- IC50 (BL-41): 0.189 µM
- IC50 (Hs-578T): > 1.02 µM
- IC50 (NCI-H446): > 1.02 µM
- IC50 (NCI-H1563): > 1.02 µM
- IC50 (Calu-3): > 1.02 µM
- IC50 (COLO-684): 0.303 µM
- IC50 (SU-DHL-1): > 1.02 µM
- IC50 (P31-FUJ): > 1.02 µM
- IC50 (SK-PN-DW): > 1.02 µM
- IC50 (PANC-08-13): > 1.02 µM
- IC50 (DU-4475): > 1.02 µM

Compound: C=C(c1ccc(C(=O)O)cc1)c1cc2c(cc1C)C(C)(C)CCC2(C)C [BEXAROTENE]
- IC50 (DMS-153): > 8 µM
- IC50 (SNU-16): > 8 µM
- IC50 (C32): > 8 µM
- IC50 (FTC-133): > 8 µM
- IC50 (OE33): > 8 µM
- IC50 (Daoy): > 8 µM
- IC50 (ES6): > 8 µM
- IC50 (RCC10RGB): > 8 µM
- IC50 (NCI-H2122): 4.94 µM
- IC50 (D-542MG): > 8 µM
- IC50 (S-117): > 8 µM
- IC50 (Ca-Ski): > 8 µM
- IC50 (no-10): > 8 µM
- IC50 (GCIY): > 8 µM
- IC50 (JAR): > 8 µM
- IC50 (SW1573): > 8 µM
- IC50 (HAL-01): > 8 µM
- IC50 (TE-8): > 8 µM
- IC50 (EFM-19): > 8 µM
- IC50 (C-33-A): > 8 µM
- IC50 (C2BBe1): > 8 µM
- IC50 (769-P): > 8 µM
- IC50 (NCI-H2171): > 8 µM
- IC50 (KGN): > 8 µM
- IC50 (LS-411N): > 8 µM
- IC50 (SCC-9): > 8 µM
- IC50 (BEN): > 8 µM
- IC50 (NCI-H510A): > 8 µM
- IC50 (MC-CAR): > 8 µM
- IC50 (EW-16): > 8 µM
- IC50 (UO-31): > 8 µM
- IC50 (MDA-MB-231): > 8 µM
- IC50 (HD-MY-Z): > 8 µM
- IC50 (NCI-H1522): > 8 µM
- IC50 (TYK-nu): 7.11 µM
- IC50 (KYSE-140): > 8 µM
- IC50 (AN3-CA): > 8 µM
- IC50 (BL-41): > 8 µM
- IC50 (Hs-578T): > 8 µM
- IC50 (NCI-H446): > 8 µM
- IC50 (NCI-H1563): > 8 µM
- IC50 (Calu-3): > 8 µM
- IC50 (COLO-684): > 8 µM
- IC50 (SU-DHL-1): > 8 µM
- IC50 (P31-FUJ): > 8 µM
- IC50 (SK-PN-DW): > 8 µM
- IC50 (PANC-08-13): > 8 µM
- IC50 (DU-4475): > 8 µM

Compound: CC[C@H](CO)Nc1nc(NCc2ccccc2)c2ncn(C(C)C)c2n1 [SELICICLIB]
- IC50 (DMS-153): > 16 µM
- IC50 (SNU-16): > 16 µM
- IC50 (ES6): > 16 µM
- IC50 (RCC10RGB): > 16 µM
- IC50 (D-542MG): > 16 µM
- IC50 (no-10): > 16 µM
- IC50 (GCIY): 12.9 µM
- IC50 (JAR): > 16 µM
- IC50 (HAL-01): > 16 µM
- IC50 (TE-8): > 16 µM
- IC50 (C2BBe1): > 16 µM
- IC50 (NCI-H2171): > 16 µM
- IC50 (KGN): > 16 µM
- IC50 (LS-411N): > 16 µM
- IC50 (NCI-H510A): > 16 µM
- IC50 (MC-CAR): > 16 µM
- IC50 (EW-16): > 16 µM
- IC50 (HD-MY-Z): > 16 µM
- IC50 (NCI-H1522): > 16 µM
- IC50 (BL-41): > 16 µM
- IC50 (NCI-H446): > 16 µM
- IC50 (COLO-684): > 16 µM
- IC50 (SU-DHL-1): > 16 µM
- IC50 (P31-FUJ): > 16 µM
- IC50 (SK-PN-DW): > 16 µM
- IC50 (DU-4475): > 16 µM
